In US20080318911A1, “20-Cyclopropyl, 26,27-Alkyl/Haloalkyl Vitamin D3 Compounds and Methods of Use Thereof” (BIOXELL S.P.A., priority 2004, published 2008):

What was measured:
[1] = tested on: IFN-γ production by allogeneic PBMC; assay: IFN-γ production in the mixed leukocyte response (MLR); type: cell-based; conditions: 120 h; MLR of allogeneic PBMC, 5 days, ELISA; read-out: INF-γ IC50
Procedure: Immature dendritic cells (DC) were prepared as described in Romani, N. et al. (Romani, N. et al. (1996) J. Immunol. Meth. 196:137). IFN-γ production by allogeneic T cell activation in the mixed leukocyte response (MLR) was determined as described in Penna, G., et al., J Immunol., 164: 2405-2411 (2000).
Briefly, peripheral blood mononuclear cells (PBMC) were separated from buffy coats by Ficoll gradient and the same number (3×10^5) of allogeneic PBMC from 2 different donors were co-cultured in 96-well flat-bottom plates. The vitamin D3 compounds were added to each of the cultures.

[2] = tested on: RT4; assay: Proliferation assay using bladder cancer cell lines: RT4; type: cell-based, human; conditions: Homo sapiens, RT-4; 72 h culture, CyQuant proliferation assay
Procedure: (§1) Bladder cancer cell lines (T24, RT112, HT1376 and RT4 are human bladder cancer cell lines; NHEK are normal human keratinocytes) were obtained from the European Collection of Cell Cultures (Salisbury, UK). Cells were plated at 3×10^3 per well, in flat bottomed 96-well plates in 100 μl of DMEM medium containing: 5% Fetal Clone 1,50 μg/l gentamicin, 1 mM sodium pyruvate and 1% non-essential amino acids. After culturing for 24 h at 37° C. in 5% CO2, to allow cells to adhere to the plates, VDR ligands (compounds (1)-(14)) were added at concentrations ranging from 100 μM to 0.3 μM in 100 μl of above-mentioned complete medium. After a further 72 h of culture, cell proliferation was measured using a fluorescence-based proliferation assay kit. (CyQuant Cell Proliferation Assay Kit, Molecular Probes, Eugene, Oreg., USA). The IC50 was calculated from the regression curve of the titration data.

[3] = tested on: RT112; assay: Proliferation assay using bladder cancer cell lines: RT112; type: cell-based, human; conditions: Homo sapiens, RT-112; 72 h culture, CyQuant proliferation assay
Procedure: as §1

[4] = tested on: NHEK; assay: Proliferation assay: NHEK normal human keratinocytes; type: cell-based; conditions: 72 h culture, CyQuant proliferation assay
Procedure: as §1

[5] = tested on: Renin mRNA in As4.1 cells; assay: Renin mRNA inhibition in murine juxtaglomerular cell line As4.1; type: cell-based; conditions: Mus musculus, 24 h, real time PCR normalized versus β-actin, read-out: Renin mRNA inh.As4.1/wt
Procedure: As4.1 cells (80% subconfluent) were treated in complete medium with compounds of the invention at 10^−8, 10^−9 and 10^−10 M for 24 h. Total RNA was extracted using RNeasy Mini kit (Qiagen); treated with DNase I (Qiagen) and Reverse Transcription Reagent (Applied Biosystems) with Random Examers were used for reverse transcription according to the manufacturers' instructions. Real Time PCR analysis was performed in multiplex using commercially available β-actin VIC-conjugated probe (cat. n. 4352341E, Applied Biosystems) and custom designed mRENIN FAM-conjugated probe (Assay by Design, Applied Biosystems; Forward: […]; Reverse: […]; Probe: FAM-[…]-MGB). Reactions were performed in a 25 μL volume containing 12,5 μl 2× Master Mix (Applied Biosystems), 10 ng/reaction/well cDNA, and 2,5 μM each gene-specific primer. An ABI PRISM 7700 analyzer (Applied Biosystems) was used at 50° C. for 2 minutes and 95° C. for 10 minutes, followed by 40 cycles at 95° C. for 15 seconds and 60° C. for 1 minute. Cycle threshold (Ct) values were exported onto Excel worksheets for analysis. Test cDNA results were normalized versus mouse β-actin housekeeping gene. Fold differences in gene expression between the subtracted versus the unsubtracted populations were expressed using the method of 2^−ΔΔCt. (Table 6)

[6] = Determination of Maximum Tolerated Dose (MTD) in mice; conditions: mouse, in vivo, po; female C57BL/6 mice, p.o. daily for four days; highest dose without hypercalcemia (serum calcium >10.7 mg/dl)
[7] = tested on: human stromal bladder cells; assay: Basal growth of human stromal bladder cells; type: cell-based; conditions: FIG. 2
Description: The Inventors confirmed the presence of vitamin D receptors (VDRs), as previously reported in the literature, on these cells (see below in FIG. 1).
The maximum tolerated dose (MTD) in rats is also listed for each compound (Table 5).

Row | Structure (SMILES) | IC50 [1] | IC50 [2] | IC50 [3] | IC50 [4] | IC50 [5] | MTD at 4 days [6] | inhibiting the basal growth of bladder cells [7]
1 | C[C@]12CCC/C(=C\C=C3\CC(O)C[C@H](O)C3)C1CC=C2C1(C/C=C/C(O)(C(F)(F)F)C(F)(F)F)CC1 (stereo partly drawn) [Compound 5, 1α,25-Dihydroxy-16-ene-20-cyclopropyl-23,24-E-ene-26,27-hexafluoro-19-nor-cholecalciferol] | 0.012 nM | 4600 nM | 14500 nM | 4900 nM | 4.4 nM | – | –
2 | C=C1/C(=C\C=C2/CCC[C@]3(C)C(C4(CC#CC(O)(C(F)(F)F)C(F)(F)F)CC4)=CCC23)CC(O)C[C@@H]1O (stereo partly drawn) [Compound 4, 1α,25-Dihydroxy-16-ene-20-cyclopropyl-23,24-yne-26,27 hexafluoro-cholecalciferol] | 0.045 nM | 1700 nM | 13800 nM | 2000 nM | 2.99 nM | 0.3 µg/kg | effective
3 | C=C1/C(=C\C=C2/CCC[C@]3(C)C(C4(CCCC(C)(C)O)CC4)=CCC23)CC(O)C[C@@H]1O (stereo partly drawn) [Compound 10, 1α,25-Dihydroxy-16-ene-20-cyclopropyl-cholecalciferol] | – | 2000 nM | 27600 nM | 5200 nM | 26.2 nM | 1 µg/kg | effective
4 | C=C1/C(=C\C=C2/CCC[C@]3(C)C(C4(CC#CC(C)(C)O)CC4)=CCC23)CC(O)C[C@@H]1F (stereo partly drawn) [Compound 11, 1α-Fluoro-25-hydroxy-16-ene-23-yne-20-cyclopropyl-cholecalciferol] | 0.0164 nM | 16700 nM | > 30000 nM | – | 303 nM | 100 µg/kg | –
5 | C=C1/C(=C\C=C2/CCC[C@]3(C)C(C4(CC#CC(C)(C)O)CC4)=CCC23)CC(O)C[C@@H]1O (stereo partly drawn) [Compound 1, 1α,25-Dihydroxy-16-ene-20-cyclopropyl-23,24-yne-cholecalciferol] | 0.0336 nM | 10600 nM | > 30000 nM | – | 9.42 nM | 10 µg/kg | –
6 | C=C1/C(=C\C=C2/CCC[C@]3(C)C(C4(CC#CC(O)(C(F)(F)F)C(F)(F)F)CC4)=CCC23)CC(O)C[C@@H]1F (stereo partly drawn) [Compound 12, 1α-Fluoro-25-hydroxy-16-ene-20-cyclopropyl-23-yne-26,27-hexafluoro-cholecalciferol] | 0.585 nM | 3600 nM | 16900 nM | 1000 nM | 9.73 nM | 0.3 µg/kg | –
7 | C=C1/C(=C\C=C2/CCC[C@]3(C)C(C4(C/C=C/C(O)(C(F)(F)F)C(F)(F)F)CC4)=CCC23)CC(O)C[C@@H]1F (stereo partly drawn) [Compound 13, 1α-Fluoro-25-hydroxy-16,23E-diene-20-cyclopropyl-26,27-hexafluoro-cholecalciferol] | 0.065 nM | 3600 nM | 17000 nM | 5100 nM | 9.5 nM | 3 µg/kg | –
8 | CC(C)(O)C#CCC1(C2=CCC3/C(=C/C=C4/CC(O)C[C@H](O)C4)CCC[C@]23C)CC1 (stereo partly drawn) [Compound 2, 1α,25-Dihydroxy-16-ene-20-cyclopropyl-23,24-yne-19-nor-cholecalciferol] | 0.0254 nM | 6300 nM | > 30000 nM | – | 97.2 nM | 10 µg/kg | –
9 | C=C1/C(=C\C=C2/CCC[C@]3(C)C(C4(C/C=C/C(O)(C(F)(F)F)C(F)(F)F)CC4)=CCC23)CC(O)C[C@@H]1O (stereo partly drawn) [Compound 6, 1α,25-Dihydroxy-16-ene-20-cyclopropyl-23,24-E-ene-26,27-hexafluoro-cholecalciferol] | 0.04 nM | 2300 nM | 10600 nM | 5800 nM | 0.547 nM | 0.3 µg/kg | effective
10 | C=C1/C(=C\C=C2/CCC[C@]3(C)C(C4(C/C=C\C(O)(C(F)(F)F)C(F)(F)F)CC4)=CCC23)CC(O)C[C@@H]1F (stereo partly drawn) [Compound 14, 1α-Fluoro-25-hydroxy-16,23Z-diene-20-cyclopropyl-26,27-hexafluoro-cholecalciferol] | 0.081 nM | 3100 nM | 21000 nM | 4000 nM | 6 nM | 1 µg/kg | –
